Laboratory results: US20230241178A1, “LONG ACTING GLP-1/GIP DUAL AGONISTS” (SUN PHARMACEUTICAL INDUSTRIES LIMITED, priority 2020, published 2023)
Marks after values point to notes of the source that are not given here.

Key:
[1] = system: type 2 diabetic mouse (db/db) model; assay: Reduction of HbA1c in db/db type 2 diabetic mice after chronic treatment (HbA1c, insulin, triglycerides, food consumption, body weight); type: in vivo; settings: for Cumulative Food Consumption Day 0-28 / Insulin / Triglycerides / Δ% HbA1c vs. DC / Body Weight (%) Day 28 vs. Baseline: db/db mice
Procedure: This study was performed in a type 2 diabetic mouse (db/db) model. […] All the treatments were injected subcutaneously every third day for 10 doses (q3d*10). % HbA1c, Insulin, Triglycerides levels were measured on Day 0, day 14 and day 28. Cumulative food intake from day 0-28 and % Change in body weight compared to day 0 was calculated on day 28.

[2] = system: type 2 diabetic mouse (db/db) model; assay: Effect on blood glucose, food intake and body weight, single s.c. dose 10 nM/kg, db/db mice (Tables 8, 9); type: in vivo; settings: 10 nM/kg/s.c/single dose
Procedure: This study was performed in a type 2 diabetic mouse (db/db) model. […] Baseline blood glucose was measured from all the animals. All the animals were administered with test items subcutaneously. Blood glucose was measured at 4 hr, 12 hr, 24 hr, 48 hr, 72 hr and 96 hr post treatment. Delta blood glucose (mM) was calculated. Body weight changes and cumulative food consumption was measured at 96 hr post treatment. Similarly the effect of Compounds 11-15 on blood glucose, food intake and body weight was studied in a separate study except for Compound 13. The results are shown in Table 8 (effect on blood glucose) and Table 9 (effect on body weight and food consumption).

[3] = system: type 2 diabetic mouse (db/db) model; assay: Reduction in blood glucose and effect on body weight and food intake, single dose, db/db mice (Tables 4, 5); type: in vivo
Procedure: The effect of Compounds of present invention on blood glucose was studied on mice. This study was performed in a type 2 diabetic mouse (db/db) model. […] Baseline blood glucose was measured from all the animals. All animals were administered with its respective test item subcutaneously. […] Delta blood glucose (mM) was calculated. Similarly body weight changes and cumulative food consumption was measured at 96 hr post treatment.

[4] = system: type 2 diabetic mouse (db/db) model; assay: Effect of Compound 2 and 7 on blood glucose, body weight and food consumption in mice, up to 72 hr (Tables 6, 7); type: in vivo; settings: 10 nM/kg
Procedure: Similarly body weight changes and cumulative food consumption was measured at 72 hr post treatment.

GLP-1R = target: T1, GLP-1R (Homo sapiens, UniProt P43220); assay: cAMP assay (cAMP Hunter eXpress GPCR Assay) on GLP-1R-expressing cells; type: cell-based; settings: read-out: half-maximal effective concentration, cellular cAMP
T1 construct: host or cells: GLP-1R-expressing cells of the cAMP Hunter eXpress GPCR Assay kit
Procedure: (§1) In-vitro potency determination was performed using cAMP assay. G protein coupled receptor (GPCR) activation following ligand binding initiates a series of second messenger cascades that results in a cellular response. Signaling by the GLP-1R and GIP-R involves activation of adenylate cyclase and cAMP production. Cellular cAMP production was determined using the cAMP Hunter™ eXpress GPCR Assay (Eurofins DiscoveRx).

[5] = system: type 2 diabetic mouse (db/db) model; assay: Reduction of HbA1c in db/db type 2 diabetic mice after chronic treatment (HbA1c, insulin, triglycerides, food consumption, body weight); type: in vivo; settings: 9 nM/kg and 18 nM/kg dose
GIPR = target: T2, GIPR (Homo sapiens, UniProt P48546); assay: cAMP assay (cAMP Hunter eXpress GPCR Assay) on GIPR-expressing cells; type: cell-based; settings: read-out: half-maximal effective concentration, cellular cAMP
T2 construct: host or cells: GIPR-expressing cells of the cAMP Hunter eXpress GPCR Assay kit
T2 sequence (P48546 22-466): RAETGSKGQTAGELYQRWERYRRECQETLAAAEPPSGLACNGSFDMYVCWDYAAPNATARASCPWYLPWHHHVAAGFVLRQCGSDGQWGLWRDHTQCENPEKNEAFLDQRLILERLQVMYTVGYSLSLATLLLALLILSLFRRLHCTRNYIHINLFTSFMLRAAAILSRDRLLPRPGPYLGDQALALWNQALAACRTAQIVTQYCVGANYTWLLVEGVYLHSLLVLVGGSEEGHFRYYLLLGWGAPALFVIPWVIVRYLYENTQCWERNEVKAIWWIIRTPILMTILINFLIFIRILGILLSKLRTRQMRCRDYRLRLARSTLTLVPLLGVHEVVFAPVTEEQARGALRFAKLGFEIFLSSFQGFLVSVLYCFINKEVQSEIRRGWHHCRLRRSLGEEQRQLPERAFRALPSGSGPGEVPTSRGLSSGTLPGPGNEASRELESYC
Procedure: as §1

[6] = 6 nM/kg s.c., separate study n = 5

T1 sequence (P43220 24-463): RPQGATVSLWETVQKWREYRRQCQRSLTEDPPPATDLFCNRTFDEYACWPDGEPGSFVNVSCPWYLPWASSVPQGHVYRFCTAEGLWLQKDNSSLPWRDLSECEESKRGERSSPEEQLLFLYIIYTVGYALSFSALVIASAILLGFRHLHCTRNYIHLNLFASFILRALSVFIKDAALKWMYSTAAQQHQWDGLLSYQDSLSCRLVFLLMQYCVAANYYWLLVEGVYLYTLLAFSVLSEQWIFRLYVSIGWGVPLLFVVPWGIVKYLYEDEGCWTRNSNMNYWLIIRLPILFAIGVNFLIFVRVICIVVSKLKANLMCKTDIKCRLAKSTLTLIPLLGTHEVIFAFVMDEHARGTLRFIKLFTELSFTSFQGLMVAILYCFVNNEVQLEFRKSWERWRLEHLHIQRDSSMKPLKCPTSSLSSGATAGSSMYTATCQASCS

## CC[C@H](C)[C@H](NC(=O)[C@H](CC(C)C)NC(=O)[C@H](Cc1c[nH]c2ccccc12)NC(=O)[C@H](CCC(N)=O)NC(=O)[C@@H](NC(=O)[C@H](Cc1ccccc1)NC(=O)[C@H](C)NC(=O)[C@H](CCCCNC(=O)COCCOCCNC(=O)C(C)(C)NC(=O)CC[C@H](NC(=O)CCCCCCCCCCCCCCCCCCC(=O)O)C(=O)O)NC(=O)[C@H](CCC(N)=O)NC(=O)[C@H](C)NC(=O)[C@@H](NC(=O)[C@H](CCCCN)NC(=O)[C@H](CC(=O)O)NC(=O)[C@H](CC(C)C)NC(=O)C(C)(C)NC(=O)[C@@H](NC(=O)[C@H](CO)NC(=O)[C@H](Cc1ccc(O)cc1)NC(=O)[C@H](CC(=O)O)NC(=O)[C@H](CO)NC(=O)[C@@H](NC(=O)[C@H](Cc1ccccc1)NC(=O)[C@@H](NC(=O)CNC(=O)[C@H](CCC(=O)O)NC(=O)C(C)(C)NC(=O)[C@@H](N)Cc1ccc(O)cc1)[C@@H](C)O)[C@@H](C)O)[C@@H](C)CC)[C@@H](C)CC)C(C)C)C(=O)N[C@@H](C)C(=O)NCC(=O)NCC(=O)N1CCC[C@H]1C(=O)N[C@@H](CO)C(=O)N[C@@H](CO)C(=O)NCC(=O)N[C@@H](C)C(=O)N1CCC[C@H]1C(=O)N1CCC[C@H]1C(=O)N1CCC[C@H]1C(=O)N[C@@H](CO)C(N)=O [Compound 2]
[1]; 9 nM/kg, day 14
  insulin levels compared to the diabetic control group (in words): statistically significant increase in insulin levels
[1]; 4.5, 9 and 18 nM/kg
  triglycerides compared to the diabetic control group (in words): statistically significant lowering of triglycerides
[1]; 4.5, 9 and 18 nM/kg, day 14 and 28th day
  change in HbA1c compared to the diabetic control (in words): statistically significant change in HbA1c
[1]; 4.5, 9 and 18 nM/kg, day 28
  body weight compared to the diabetic control group (in words): statistically significant decrease in body weight
[1]; 4.5, 9 and 18 nm/kg, course of the study
  cumulative food consumption compared to the diabetic control group (in words): statistically significant reduction in cumulative food consumption
[1]; 4.5 nM/kg s.c. q3d*10
  Cumulative Food Consumption Day 0-28: 112.4
[1]; 9 nM/kg s.c. q3d*10
  Cumulative Food Consumption Day 0-28: 111.8
[1]; 18 nM/kg s.c. q3d*10
  Cumulative Food Consumption Day 0-28: 89.5
[1]; Day 14, 4.5 nM/kg s.c. q3d*10
  Insulin: 34.75 ng/mL
  Triglycerides: 218.7 mg/dL
  Δ% HbA1c vs. DC: −2.43*** %
[1]; Day 14, 9 nM/kg s.c. q3d*10
  Insulin: 69.63 ng/mL
  Triglycerides: 169.8 mg/dL
  Δ% HbA1c vs. DC: −2.90*** %
[1]; Day 14, 18 nM/kg s.c. q3d*10
  Insulin: 75.09 ng/mL
  Triglycerides: 172.4 mg/dL
  Δ% HbA1c vs. DC: −3.04*** %
[1]; Day 28, 4.5 nM/kg s.c. q3d*10
  Body Weight (%) Day 28 vs. Baseline: −7.0%
  Insulin: 33.44 ng/mL
  Triglycerides: 208.9 mg/dL
  Δ% HbA1c vs. DC: −3.64*** %
[1]; Day 28, 9 nM/kg s.c. q3d*10
  Body Weight (%) Day 28 vs. Baseline: −8.9%
  Insulin: 53.87 ng/mL
  Triglycerides: 147.4 mg/dL
  Δ% HbA1c vs. DC: −4.19*** %
[1]; Day 28, 18 nM/kg s.c. q3d*10
  Body Weight (%) Day 28 vs. Baseline: −9.3%
  Insulin: 76.93 ng/mL
  Triglycerides: 144.3 mg/dL
  Δ% HbA1c vs. DC: −4.25*** %
[2]; 0 hr (baseline)
  Delta Blood Glucose (mM), Mean: 0.0 mM
[2]
  Body Wt. Change (%) 96 hr. vs. Baseline, Mean: −4.2*** %
  Cumulative food Intake (g) 96 hr. vs. Baseline, Mean: 12.3*** g
  blood glucose reduction post treatment (in words): statistically significant blood glucose reduction
[2]; 4 hr post treatment
  Delta Blood Glucose (mM), Mean: −13.1*** mM
[2]; 12 hr post treatment
  Delta Blood Glucose (mM), Mean: −11.7*** mM
[2]; 24 hr post treatment
  Delta Blood Glucose (mM), Mean: −8.2*** mM
[2]; 48 hr post treatment
  Delta Blood Glucose (mM), Mean: −6.0** mM
[2]; 72 hr post treatment
  Delta Blood Glucose (mM), Mean: -2.8 mM
[2]; 96 hr post treatment
  Delta Blood Glucose (mM), Mean: 0.6 mM
[3]; 3 nM/kg s.c., n = 6 study
  Cumulative Food Intake (g) 0-96 hr, Mean: 14.6*** g
  Body Weight Change (%) 96 hr., Mean: −5*** %
[3]; [6]
  Cumulative Food Intake (g) 0-96 hr, Mean: 18.2 g
  Body Weight Change (%) 96 hr., Mean: −0.9%
[3]; 4 hr post treatment, @ 3 nM s.c., n = 6 study
  Delta Blood Glucose (mM), Mean: -12.6 mM
[3]; 4 hr post treatment, @ 6 nM s.c., separate study n = 5
  Delta Blood Glucose (mM), Mean: −14.4*** mM
[3]; 12 hr post treatment, @ 3 nM s.c., n = 6 study
  Delta Blood Glucose (mM), Mean: -10.6 mM
[3]; 12 hr post treatment, @ 6 nM s.c., separate study n = 5
  Delta Blood Glucose (mM), Mean: −18.0*** mM
[3]; 24 hr post treatment, @ 3 nM s.c., n = 6 study
  Delta Blood Glucose (mM), Mean: -8.3 mM
[3]; 24 hr post treatment, @ 6 nM s.c., separate study n = 5
  Delta Blood Glucose (mM), Mean: −16.9*** mM
[3]; 48 hr post treatment, @ 3 nM s.c., n = 6 study
  Delta Blood Glucose (mM), Mean: -7.3 mM
[3]; 48 hr post treatment, @ 6 nM s.c., separate study n = 5
  Delta Blood Glucose (mM), Mean: −8.9*** mM
[3]; 72 hr post treatment, @ 3 nM s.c., n = 6 study
  Delta Blood Glucose (mM), Mean: -4.7 mM
[3]; 72 hr post treatment, @ 6 nM s.c., separate study n = 5
  Delta Blood Glucose (mM), Mean: 0.1 mM
[3]; 96 hr post treatment, @ 3 nM s.c., n = 6 study
  Delta Blood Glucose (mM), Mean: -0.3 mM
[3]; 96 hr post treatment, @ 6 nM s.c., separate study n = 5
  Delta Blood Glucose (mM), Mean: 2.1 mM
[4]
  time for which efficacy on blood glucose was maintained: 72 h
[4]; mice, n = 8
  % Body wt. change 72 hr. vs. 0 hr., Mean: −7.2*** %
  Cumulative Food Consumption (0-72 hr) (g), Mean: 8.4*** g
[4]; 4 hr post treatment, mice, n = 8
  Delta Blood Glucose (mM), Mean: -15.6 mM
[4]; 8 hr post treatment, mice, n = 8
  Delta Blood Glucose (mM), Mean: -16.3 mM
[4]; 12 hr post treatment, mice, n = 8
  Delta Blood Glucose (mM), Mean: -16.0 mM
[4]; 24 hr post treatment, mice, n = 8
  Delta Blood Glucose (mM), Mean: -14.6 mM
[4]; 72 hr post treatment, mice, n = 8
  Delta Blood Glucose (mM), Mean: -4.1 mM
GLP-1R
  EC50: 4.1 nM
[5]
  reduction in HbA1c on day 29 more than the reduction on day 14: more than 40%
GIPR
  EC50: 2.3 nM
